Reference: patent US20100222332A1, “PYRAZOLO-PYRAZINES DERIVATIVES USED AS G PROTEIN INHIBITORS” (Ipsen Pharma S.A.S., priority 2007, published 2010)

SMILES | melting point
CC(C)(C)OC(=O)N[C@@H](CSSC[C@H](NC(=O)OC(C)(C)C)C(=O)N1CCn2nc(-c3ccccc3)cc2C1CC1CCCCC1)C(=O)N1CCn2nc(-c3ccccc3)cc2C1CC1CCCCC1 (mixture of isomers) [Example 1, tert-butyl {(1R)-1-[({(2R)-2-[(tert-butoxycarbonyl)amino]-3-[(4RS)-4-(cyclohexylmethyl)-2-phenyl-6,7-dihydropyrazolo[1,5-a]pyrazin-5(4H)-yl]-3-oxopropyl}dithio)methyl]-2-[(4RS)-4-(cyclohexylmethyl)-2-phenyl-6,7-dihydropyrazolo[1,5-a]pyrazin-5(4H)-yl]-2-oxoethyl}carbamate] | 129 to 132 °C
CC(C)(C)OC(=O)N[C@@H](CSSC[C@H](NC(=O)OC(C)(C)C)C(=O)N1CCn2nc(-c3ccccc3)cc2C1CCc1ccccc1)C(=O)N1CCn2nc(-c3ccccc3)cc2C1CCc1ccccc1 (mixture of isomers) [Example 2, tert-butyl {(1R)-1-[({(2R)-2-[(tert-butoxycarbonyl)amino]-3-oxo-3-[(4RS)-2-phenyl-4-(2-phenylethyl)-6,7-dihydropyrazolo[1,5-a]pyrazin-5(4H)-yl]propyl}dithio)methyl]-2-oxo-2-[(4RS)-2-phenyl-4-(2-phenylethyl)-6,7-dihydropyrazolo[1,5-a]pyrazin-5(4H)-yl]ethyl}carbamate] | 123 to 127 °C
CC(C)(C)OC(=O)N[C@@H](CSSC[C@H](NC(=O)OC(C)(C)C)C(=O)N1CCn2nc(-c3ccncc3)cc2C1CCc1ccccc1)C(=O)N1CCn2nc(-c3ccncc3)cc2C1CCc1ccccc1 (mixture of isomers) [Example 3, tert-butyl {(1R)-1-[({(2R)-2-[(tert-butoxycarbonyl)amino]-3-oxo-3-[(4RS)-4-(2-phenylethyl)-2-pyridin-4-yl-6,7-dihydropyrazolo[1,5-a]pyrazin-5(4H)-yl]propyl}dithio)methyl]-2-oxo-2-[(4RS)-4-(2-phenylethyl)-2-pyridin-4-yl-6,7-dihydropyrazolo[1,5-a]pyrazin-5(4H)-yl]ethyl}carbamate] | 149 to 152 °C
CC(C)(C)OC(=O)N[C@@H](CSSC[C@H](NC(=O)OC(C)(C)C)C(=O)N1CCn2nc(-c3cccnc3)cc2C1CCc1ccccc1)C(=O)N1CCn2nc(-c3cccnc3)cc2C1CCc1ccccc1 (mixture of isomers) [Example 4, tert-butyl {(1R)-1-[({(2R)-2-[(tert-butoxycarbonyl)amino]-3-oxo-3-[(4RS)-4-(2-phenylethyl)-2-pyridin-3-yl-6,7-dihydropyrazolo[1,5-a]pyrazin-5(4H)-yl]propyl}dithio)methyl]-2-oxo-2-[(4RS)-4-(2-phenylethyl)-2-pyridin-3-yl-6,7-dihydropyrazolo[1,5-a]pyrazin-5(4H)-yl]ethyl}carbamate] | 115 to 130 °C
COc1cc(-c2cc3n(n2)CCN(C(=O)[C@H](CSSC[C@H](NC(=O)OC(C)(C)C)C(=O)N2CCn4nc(-c5cc(OC)c(OC)c(OC)c5)cc4C2CCc2ccccc2)NC(=O)OC(C)(C)C)C3CCc2ccccc2)cc(OC)c1OC (mixture of isomers) [Example 6, tert-butyl {(1R)-1-[({(2R)-2-[(tert-butoxycarbonyl)amino]-3-oxo-3-[(4RS)-4-(2-phenylethyl)-2-(3,4,5-trimethoxyphenyl)-6,7-dihydropyrazolo[1,5-a]pyrazin-5(4H)-yl]propyl}dithio)methyl]-2-oxo-2-[(4RS)-4-(2-phenylethyl)-2-(3,4,5-trimethoxyphenyl)-6,7-dihydropyrazolo[1,5-a]pyrazin-5(4H)-yl]ethyl}carbamate] | 130 to 136 °C
CC(C)(C)OC(=O)N[C@@H](CSSC[C@H](NC(=O)OC(C)(C)C)C(=O)N1CCn2nc(-c3cccs3)cc2C1CCc1ccccc1)C(=O)N1CCn2nc(-c3cccs3)cc2C1CCc1ccccc1 (mixture of isomers) [Example 7, tert-butyl {(1R)-1-[({(2R)-2-[(tert-butoxycarbonyl)amino]-3-oxo-3-[(4RS)-4-(2-phenylethyl)-2-(2-thienyl)-6,7-dihydropyrazolo[1,5-a]pyrazin-5(4H)-yl]propyl}dithio)methyl]-2-oxo-2-[(4RS)-4-(2-phenylethyl)-2-(2-thienyl)-6,7-dihydropyrazolo[1,5-a]pyrazin-5(4H)-yl]ethyl}carbamate] | 105 to 112 °C
